In this test the target is T1, 5-lipoxygenase (Homo sapiens, UniProt P09917).
T1 construct: The formation of 5-HETE in human leukocytes is considered a measure of 5-lipoxygenase activity; endogenous in cells; host or cells: leukocytes isolated from fresh human blood
T1 sequence (P09917 1-674): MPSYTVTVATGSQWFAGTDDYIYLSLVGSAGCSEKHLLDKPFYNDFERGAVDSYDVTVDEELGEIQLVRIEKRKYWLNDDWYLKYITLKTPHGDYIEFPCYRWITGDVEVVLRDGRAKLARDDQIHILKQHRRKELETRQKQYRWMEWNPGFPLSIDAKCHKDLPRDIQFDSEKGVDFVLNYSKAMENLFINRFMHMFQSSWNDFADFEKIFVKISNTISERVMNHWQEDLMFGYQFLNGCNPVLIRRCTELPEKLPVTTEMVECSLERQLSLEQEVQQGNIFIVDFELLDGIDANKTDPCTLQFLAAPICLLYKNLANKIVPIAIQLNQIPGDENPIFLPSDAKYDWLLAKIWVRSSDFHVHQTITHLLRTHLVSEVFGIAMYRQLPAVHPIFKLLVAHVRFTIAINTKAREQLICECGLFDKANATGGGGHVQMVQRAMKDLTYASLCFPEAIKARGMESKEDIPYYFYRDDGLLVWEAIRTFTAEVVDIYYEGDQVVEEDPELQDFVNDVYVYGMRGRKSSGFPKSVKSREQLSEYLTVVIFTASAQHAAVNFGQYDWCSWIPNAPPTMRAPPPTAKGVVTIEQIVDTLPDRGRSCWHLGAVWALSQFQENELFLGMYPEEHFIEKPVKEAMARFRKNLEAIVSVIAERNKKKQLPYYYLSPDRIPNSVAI
The test is described as follows: 5-Lipoxygenase Assay Using Isolated Human Leukocytes (5LOA2), 5-HETE formation. It counts as cell-based. To be noted: inhibition of 5-HETE formation, arachidonic acid 20 μM, A23187 10 μM, read-out: 5-LO(IC50 in μM). The protocol: 5-Lipoxygenase Assay Using Isolated Human Leukocytes (5LOA2)
The formation of 5-HETE in human leukocytes is considered a measure of 5-lipoxygenase activity. The protocol is described in the following.
Fresh heparinized or EDTA treated human blood is mixed with 6% dextran-3% dextrose in isotonic saline in the ratio 0.25 ml dextran solution per 1.0 ml blood. After mixing the blood is allowed to sit at room temperature for about 90 minutes while the RBC's settle. During this period, the plasma is removed with a plastic pipette to nalgens tubes.
The pellet, consisting of leukocytes and erythrocytes, is treated with 10 ml 0.87% ammonium chloride at room temperature for four minutes, lysing the red cells. At the end of four minutes the cells are diluted with a 2x volume of phosphate buffered saline, pH 7.4, and centrifuged for ten minutes. The cells are washed three times with the phosphate buffered saline. Any of the pelleted cell matter which is not easily resuspended is discarded during the washings--the material contains platelets (12-lipoxygenase activity).
After washing, the cells are resuspended in phosphate buffered saline containing 1.0 mM 'calcium and 0.5 mM magnesium. After counting, the cells are diluted to 1.5-2.0×10^7 leukocytes per milliliter.
To each polypropylene reaction tube is added 0.48 ml leukocytes in Ca-Mg phosphate buffered saline, pH 7.4; 1-5 μl test compound dissolved in DMSO and buffer; or DMSO for control tubes.
The tubes preincubate at 37° C. for five minutes.
The reaction is started by adding 20 μl of the following, 0.5 μl, 20 mM arachidonic acid--final concentration=20 μM; 1 μl, 5 mM calcium ionophore A23187--final concentration=10 μM; and 18.5 μl buffer.
The reaction proceeds for five minutes, then is stopped by adding 0.5 ml, 0.5 mM ice-cold Tris buffer, pH 8.0. The tubes are chilled on ice for ten minutes and then extracted three times with a total of 3.5 ml ethyl acetate (3.0 ml removed).
The tubes can be stored at this point. For extended storage, the tubes should be filled with nitrogen.
The ethyl acetate is evaporated with a Sorvall Speed-Vac. The residue is dissolved in ethanol. The tubes can also be stored at this point at -20° C. under nitrogen.
A portion of the ethanol solution is injected into the HPLC system for 5-HETE quantitation.
Injections are made automatically with a Waters WISP 710B. The pump is a Spectra Physics SP8700. […] An RP C-18 column is used. The solvent system is isocratic; the solvent is 70% methanol and 30% 0.01M sodium acetate, pH 5.7, pumped at 1.0 ml/min. […] Using a 15 cm Alltech Nucleosil C-18 5 μM column provides for a sample turnaround time of about 16 minutes.

Molecules are shown by their SMILES.

Turning to `Cc1cc(C=Cc2ccc(O)c(Cl)c2)n[nH]1` [Example 7, 3-[β-(4'-Hydroxy-3'-chlorophenyl)ethenyl]-5-methylpyrazole], the IC50 was 5.5 µM.

`COc1cc(C=Cc2cc(C=Cc3ccc(O)c(OC)c3)[nH]n2)ccc1O` [Example 1, 3,5-Bis[β-(4'-hydroxy-3'-methoxyphenyl)ethenyl]pyrazole]: the IC50 was 1 µM.

For `COc1cc(C=Cc2cc(C)n[nH]2)ccc1O` [Example 5, 3-[β-(4'-Hydroxy-3'-methoxyphenyl)ethenyl]-5-methylpyrazole], the IC50 is 7.1 µM.

The IC50 is the concentration that inhibits the measured activity by half.

Values taken from patent US4877881A, “Process of preparing pyrazoles, isoxazoles and analogs thereof having activity as 5-lipoxygenase inhibitors” (Warner-Lambert Company, priority 1988, dated 1989).
